Measured values as given in PMC2365111, “Cytotoxicity of Poly(Phenolic)Sulfonates and Their Sodium Salts in L1210 Lymphoid Leukemia Cells” (Metal-Based Drugs, 1998).

Legend:
[1] = tested on: colorectal adenocarcinoma SW480; assay: Cytotoxicity, SW480 growth; format: cell-based, human
From the text: CYTOTOXlCITY OF POLY(PHENOLIC)SULFONATES AND THEIR SODIUM SALTS IN L1210 LYMPHOID LEUKEMIA CELLS Fei Wang, Amy E. Warren, Cheryl R. Barnes and Iris H. Hall* Division of Medicinal Chemistry and Natural Products University of North Carolina Chapel Hill, N.C. […] Because ofthese properties it was surmised that these poly(phenolic)sulfonated compounds may have antineoplastic activity. METHODS Source of Compounds Test compounds were supplied by GeneLabs, Inc. [Redwood City, CA [Table 1]. Radioisotopes were obtained from New England Nuclear [Dupont, Boston, MA]. Substrates and co-factors were purchased om Sigma Chemical Co., [St Louis, MO]. Pentosan sulfate and other antineoplastic standards were obtained from Sigma Chemical Co. Tumor lines were obtained from American Type Culture Collection [Rockville, MD]. 147 Vol. 5, No. 3, 1998 Cytotoxicity ofSodium Poly(Phenolic)Sulfonates in L1210 Lymphoid Leukemia Cells Table 1 Structures of Poly(phenolic)sulfonate Compounds O2R" n Compound R' R" n MW # G1-2041 H OH 8 1489.46 G1-2029 H OH 6 1117.09 G1-2030 H OH 4 744.73 GI-2021 CH3 ONa 8 1777.5 G1-2057 CH3 ONa 4 888.75 GI-2158 CH3 ONa 6 1333.13 GI-2063 OCH3 ONa 8 2001.65 G1-2042 OAc ONa 8 2017.73 Cytotoxicity Poly(phenolic)sulfonates were tested for cytotoxic activity by homogenizing drug in 0.05% Tween 80/H20 to give a mg/ml stock concentration. These solutions were sterilized by passing them through an acrodisc ([…]). The following cell lines were maintained by literature techniques: murine L1210 lymphoid leukemia, P-388 lymphocytic leukemia, rat UMR 106 osteosarcoma, human Tmolt3 acute lymphoblastic T cell leukemia, HUT-8 lymphoma, HeLa-S suspended cervical carcinoma, HeLa solid cervical carcinoma, KB epidermoid nasopharynx, A431 epidermoid carcinoma, colorectal adenocarcinoma SW480, HCT-8 ileocecal adenocarcinoma, lung bronchogenic MB-9812, A549 lung carcinoma, and glioma HS683. […] Cell numbers were determined by the trypan blue exclusion technique. Solid tumor cytotoxicity was determined by Leibovitz et al. 's method utilizing crystal violeeOH and read at 562 nm (Molecular Devices). Values for cytotoxicity were expressed as EDs0 g/ml, i.e. the concentration ofthe compound inhibiting 50% ofcell growth. […] Incorporation of 4C- formate (53.0 mCi/mmol) into pyrimidines was determined by the method of Christopherson et al.[13]. […] DNA polymerase Ot activity was determined in cytoplasmic extracts isolated by Eichler et aL's method. […] Messenger-, ribosomal- and transfer-RNA polymerase enzymes were isolated with different concentrations of ammonium sulfate; individual RNA polymerase activities were determined using 3H -UTP 16,17]. Ribonucleoside reductase activity was measured using 4C -CDP with dithioerythritol. […]

[2] = tested on: KB epidermoid nasopharynx; assay: Cytotoxicity, KB growth; format: cell-based, human; settings: concentration inhibiting 50% of cell growth
From the text: (§1) CYTOTOXlCITY OF POLY(PHENOLIC)SULFONATES AND THEIR SODIUM SALTS IN L1210 LYMPHOID LEUKEMIA CELLS Fei Wang, Amy E. Warren, Cheryl R. Barnes and Iris H. Hall* Division of Medicinal Chemistry and Natural Products University of North Carolina Chapel Hill, N.C. […] Because ofthese properties it was surmised that these poly(phenolic)sulfonated compounds may have antineoplastic activity. METHODS Source of Compounds Test compounds were supplied by GeneLabs, Inc. [Redwood City, CA [Table 1]. Radioisotopes were obtained from New England Nuclear [Dupont, Boston, MA]. Substrates and co-factors were purchased om Sigma Chemical Co., [St Louis, MO]. Pentosan sulfate and other antineoplastic standards were obtained from Sigma Chemical Co. Tumor lines were obtained from American Type Culture Collection [Rockville, MD]. […] Cell numbers were determined by the trypan blue exclusion technique. Solid tumor cytotoxicity was determined by Leibovitz et al. 's method utilizing crystal violeeOH and read at 562 nm (Molecular Devices). Values for cytotoxicity were expressed as EDs0 g/ml, i.e. the concentration ofthe compound inhibiting 50% ofcell growth. […] Incorporation of 4C- formate (53.0 mCi/mmol) into pyrimidines was determined by the method of Christopherson et al.[13]. […] DNA polymerase Ot activity was determined in cytoplasmic extracts isolated by Eichler et aL's method. […] Messenger-, ribosomal- and transfer-RNA polymerase enzymes were isolated with different concentrations of ammonium sulfate; individual RNA polymerase activities were determined using 3H -UTP 16,17]. Ribonucleoside reductase activity was measured using 4C -CDP with dithioerythritol. […]

DNA polymerase α = target: DNA polymerase α; parameters: method as in ref 40; settings: non-competitively ref 40; read-out: inhibition of DNA polymerase α activity; cited from earlier work
[3] = tested on: Rauscher leukemic virus, Moloney murine sarcoma virus and avian myeloblastosis reverse transcriptase; settings: cited from earlier work
DNA polymerase = target: DNA polymerase; parameters: method as in ref 40; settings: non-competitively; enzyme name lost ref 40; read-out: inhibition of second DNA polymerase activity; cited from earlier work
DC-3F = tested on: DC-3F; parameters: method as in ref 41; settings: cited from earlier work
SV40 replication = tested on: SV40 replication; parameters: method as in ref 38; settings: in HeLa cells ref 38; cited from earlier work
HeLa cells = tested on: HeLa cells; parameters: method as in ref 38; settings: HeLa cells ref 38; cited from earlier work
[4] = tested on: DC-3F/9-OH-E (resistant 9-hydroellipticine subline); parameters: method as in ref 41; settings: cited from earlier work
[5] = tested on: HeLa-S suspended cervical carcinoma; assay: Cytotoxicity, HeLa-S3 growth; format: cell-based, human; settings: concentration inhibiting 50% of cell growth
From the text: as §1, with “MO].” for “MO]. Pentosan sulfate and other antineoplastic standards were obtained from Sigma Chemical Co. Tumor lines were obtained from American Type Culture Collection [Rockville, MD].”, “16,17].” for “16,17]. Ribonucleoside reductase activity was measured using 4C -CDP with dithioerythritol.”

[6] = tested on: lung bronchogenic MB-9812; assay: Cytotoxicity, MB-9812 growth; format: cell-based, human
From the text: as §1, with “MO].” for “MO]. Pentosan sulfate and other antineoplastic standards were obtained from Sigma Chemical Co. Tumor lines were obtained from American Type Culture Collection [Rockville, MD].”, “16,17].” for “16,17]. Ribonucleoside reductase activity was measured using 4C -CDP with dithioerythritol.”

[7] = tested on: human Tmolt3 acute lymphoblastic T cell leukemia; assay: Cytotoxicity, Tmolt3 growth; format: cell-based; settings: concentration inhibiting 50% of cell growth
From the text: as §1, with “MO].” for “MO]. Pentosan sulfate and other antineoplastic standards were obtained from Sigma Chemical Co. Tumor lines were obtained from American Type Culture Collection [Rockville, MD].”, “16,17].” for “16,17]. Ribonucleoside reductase activity was measured using 4C -CDP with dithioerythritol.”

[8] = tested on: murine L1210 lymphoid leukemia; format: cell-based, mouse; settings: concentration inhibiting 50% of cell growth
From the text: CYTOTOXlCITY OF POLY(PHENOLIC)SULFONATES AND THEIR SODIUM SALTS IN L1210 LYMPHOID LEUKEMIA CELLS Fei Wang, Amy E. Warren, Cheryl R. Barnes and Iris H. Hall* Division of Medicinal Chemistry and Natural Products University of North Carolina Chapel Hill, N.C. […] Because ofthese properties it was surmised that these poly(phenolic)sulfonated compounds may have antineoplastic activity. METHODS Source of Compounds Test compounds were supplied by GeneLabs, Inc. [Redwood City, CA [Table 1]. Radioisotopes were obtained from New England Nuclear [Dupont, Boston, MA]. Substrates and co-factors were purchased om Sigma Chemical Co., [St Louis, MO]. Pentosan sulfate and other antineoplastic standards were obtained from Sigma Chemical Co. Tumor lines were obtained from American Type Culture Collection [Rockville, MD]. 147 Vol. 5, No. 3, 1998 Cytotoxicity ofSodium Poly(Phenolic)Sulfonates in L1210 Lymphoid Leukemia Cells Table 1 Structures of Poly(phenolic)sulfonate Compounds O2R" n Compound R' R" n MW # G1-2041 H OH 8 1489.46 G1-2029 H OH 6 1117.09 G1-2030 H OH 4 744.73 GI-2021 CH3 ONa 8 1777.5 G1-2057 CH3 ONa 4 888.75 GI-2158 CH3 ONa 6 1333.13 GI-2063 OCH3 ONa 8 2001.65 G1-2042 OAc ONa 8 2017.73 Cytotoxicity Poly(phenolic)sulfonates were tested for cytotoxic activity by homogenizing drug in 0.05% Tween 80/H20 to give a mg/ml stock concentration. These solutions were sterilized by passing them through an acrodisc ([…]). The following cell lines were maintained by literature techniques: murine L1210 lymphoid leukemia, P-388 lymphocytic leukemia, rat UMR 106 osteosarcoma, human Tmolt3 acute lymphoblastic T cell leukemia, HUT-8 lymphoma, HeLa-S suspended cervical carcinoma, HeLa solid cervical carcinoma, KB epidermoid nasopharynx, A431 epidermoid carcinoma, colorectal adenocarcinoma SW480, HCT-8 ileocecal adenocarcinoma, lung bronchogenic MB-9812, A549 lung carcinoma, and glioma HS683. Geran et al.'s protocol was used to assess the cytotoxicity of the compounds and standards in each cell line. Cell numbers were determined by the trypan blue exclusion technique. Solid tumor cytotoxicity was determined by Leibovitz et al. 's method utilizing crystal violeeOH and read at 562 nm (Molecular Devices). Values for cytotoxicity were expressed as EDs0 g/ml, i.e. the concentration ofthe compound inhibiting 50% ofcell growth. A value of less than 4 µg/ml was required for significant activity ofgrowth inhibition. Incorporation Studies Incorporation of labeled precursors into 3H-DNA, 3H -RNA and 3H -protein for 10 L1210 cells was obtained. The concentration response for inhibition of DNA, RNA and protein synthesis of the compounds at 25, 50 and 100 l.tM was determined for 60 min incubations. Incorporation of 14C -glycine (53.0 mCi/mmol) into purines was obtained by the method of Cadman et al.[12]. Incorporation of 4C- formate (53.0 mCi/mmol) into pyrimidines was determined by the method of Christopherson et al.[13]. Enzyme Assays Inhibition of various enzyme activities was performed by first preparing the appropriate L1210 cell homogenates or subcellular fractions, then adding the drug to be tested during the enzyme assay. For the concentration response studies, inhibition of enzyme activity was determined at 25, 50 and 100 l.tM of compounds G1-2021, G1-2029, GI-2041 and G1-2063 after 60 min incubations. DNA polymerase Ot activity was determined in cytoplasmic extracts isolated by Eichler et aL's method. The DNA polymerase assay was described by Sedwick et al.[15] using 3H-TTP. Messenger-, ribosomal- and transfer-RNA polymerase enzymes were isolated with different concentrations of ammonium sulfate; individual RNA polymerase activities were determined using 3H -UTP 16,17]. Ribonucleoside reductase activity was measured using 4C -CDP with dithioerythritol. The deoxyribonucleotides 4C -dCDP were separated from the ribonucleotides by TLC on PEI plates. […]

In the case of `O=S(=O)(O)c1cc2c(O)c(c1)Cc1cc(S(=O)(=O)O)cc(c1O)Cc1cc(S(=O)(=O)O)cc(c1O)Cc1cc(S(=O)(=O)O)cc(c1O)C2` [GI-2030], the “activity, in words” value [1] is reported as “active” and the ED50 ([1]; concentration inhibiting 50% of cell growth) is reported as “less than 2 μg/ml”.
`COc1c2cc(S(=O)(=O)[O-])cc1Cc1cc(S(=O)(=O)[O-])cc(c1OC)Cc1cc(S(=O)(=O)[O-])cc(c1OC)Cc1cc(S(=O)(=O)[O-])cc(c1OC)Cc1cc(S(=O)(=O)[O-])cc(c1OC)Cc1cc(S(=O)(=O)[O-])cc(c1OC)C2.[Na+].[Na+].[Na+].[Na+].[Na+].[Na+]` [GI-2158] showed an ED50 [2] of 3.24 µg/mL.
For `Cc1ccc(C(=O)Nc2ccc(S(=O)(=O)O)c3cc(S(=O)(=O)O)cc(S(=O)(=O)O)c23)cc1NC(=O)c1cccc(NC(=O)Nc2cccc(C(=O)Nc3cc(C(=O)Nc4ccc(S(=O)(=O)O)c5cc(S(=O)(=O)O)cc(S(=O)(=O)O)c45)ccc3C)c2)c1` [suramin], the IC50 (DNA polymerase α) is given as 8 µM, the “concentration inhibiting reverse transcriptase activities” value [3] is given as 0.1 µg/mL and the IC50 (DNA polymerase) is given as 36 µM. The ED50 (DC-3F) was 31 µM, the “concentration required to inhibit SV40 replication” value (SV40 replication) was 40 µM and the “concentration required to cause death” value (HeLa cells) was 250 µg/mL. For the same molecule, the ED50 [4] was 203 µM.
In the case of pentosan sulfate [reference compound], the ED50 [5] is reported as less than 3 µg/mL, the “growth suppression, in words” value [6] is reported as “suppressed moderately” and the ED50 [7] is reported as less than 3 µg/mL. The ED50 [8] was less than 3 µg/mL.
